Measurements taken from patent US11332470B2, “CXCR4 inhibitors and uses thereof” (X4 Pharmaceuticals, Inc., priority 2016, dated 2022).
Read-outs that look alike come from different tables or passages of the source.

Assays:
CXCR4 (U87.CXCR4 cells) = target: T1, CXCR4 (U87.CXCR4 cells) (Homo sapiens, UniProt P61073); experiment: Intracellular CXCL-12-induced calcium mobilization assay (FLIPR); assay type: cell-based; conditions: CXCL-12 25-50 ng/mL, read-out: IC50 CXCL-12 Ca2+ flux U87.CXCR4+
T1 construct: expressed in transfected cells; host or cells: U87 (U87.CXCR4)
How it was run: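 U87.CXCR4 cells were loaded with 4 μM Fluo-2 AM for 45 min at 37 °C in HBSS/20 mM HEPES/0.2% BSA, pH 7.4. Calcium flux induced by CXCL-12 (25-50 ng/mL) was monitored kinetically by FLIPR fluorescence at 37 °C.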

[1] = target: T2, CXCR4 (Jurkat cells expressing CXCR4) (Homo sapiens, UniProt P61073); experiment: Chemokine (CXCL12-AF647) binding inhibition assay; conditions: CXCL12-AF647 25 ng/mL, read-out: IC50 CXCL-12 binding Jurkat
T2 construct: Jurkat cells expressing CXCR4; endogenous in cells; host or cells: Jurkat
How it was run: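 Cells in HBSS, 20 mM HEPES, 0.2% BSA, pH 7.4, preincubated 15 min at room temperature with compound, then 25 ng/mL CXCL12-AF647 for 30 min. After washing and paraformaldehyde fixation, bound ligand read by flow cytometry; percent inhibition calculated from MFI relative to unlabeled and ligand-only controls.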

in vitro = conditions: human, Caco-2, pH 7.4
How it was run: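 Compound at 10 μM in HBSS pH 7.4 dosed A-to-B and B-to-A across Caco-2 monolayers, 90 min at 37 °C, duplicates. Monolayer integrity by TEER and lucifer yellow (5 μM, fluorescence 485/535 nm); compound quantified by LC-MS/MS.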

[2] = Mouse brain uptake assay (pharmacokinetics and brain penetration after IV administration); assay type: in vivo, Male CD1 Mice; conditions: male, 3 mg/kg IV, 3 time points; for Kp: CD1, brain and plasma, read-out: Kp (brain/plasma drug concentration ratio, AUC last(b)/AUC last(p)); for Kp / clearance / half-life: mouse, 0-1 h; for clearance / half-life: CD1, plasma; for clearance: read-out: Cl (Clearance) (converted); for half-life: read-out: t½ (half life) (converted); for AUC(0-t): CD1, time zero to 1 hr
Procedure: Example 15: Pharmacokinetics and Brain Penetration Experiment to Determine Brain and Plasma Concentrations of Compounds after IV Administration to Male CD1 Mice or Male SD Rats
The study design (9 animals) consisted of administrating the drug (IV: 3 mg/kg (5 mL/kg) via tail vein injection) and collecting samples at terminal bleeding for plasma and brain at 0.083, 0.5 and 1 h. The blood collection was performed as follows: the animal was restrained manually and approximately 150 μL blood/time point was collected into a dipotassium EDTA tube via retro orbital puncture under anesthesia with isoflurane. The blood sample was put on ice and centrifuged to obtain a plasma sample (2000 g, 5 min under 4° C.) within 15 minutes. The brain collection was performed as follows: a mid-line incision was made in the animal's scalp and the skin was retracted. Using small bone cutters and rongeurs, the skull overlying the brain was removed. The brain was removed using a spatula and the brain rinsed with cold saline. The brain was placed in screw-top tubes, and the tubes were stored at −70° C. until analysis. The IV dosing solution was prepared in 50 mM citrate buffer (pH 4.0) at 0.6 mg/mL.
Plasma Sample Preparation:
An aliquot of 30 μL sample was added to […] containing 50 ng/mL IS (Dexamethasone). The mixture was vortexed for 5 min and centrifuged at 14,000 rpm for 5 min. An aliquot of 5 μL supernatant was injected for LC-MS/MS analysis.
Brain Sample Preparation:
An aliquot of 30 μL brain homogenate (brain:PBS=1:3, w/v) sample was added to 150 μL IS in MeCN (Dexamethasone, 50 ng/mL). The mixture was vortexed for 5 min and centrifuged at 14,000 rpm for 5 min. An aliquot of 5 μL supernatant was injected for LC-MS/MS analysis.
The sample analysis was performed on LCMS/MS-003 (API4000, triple quadruple) under the following conditions: positive ion, ESI, MRM detection using dexamethasone as internal standard. HPLC conditions: mobile phase A: H2O (0.025% formic acid (FA) with 1 mM NH4OAc); mobile phase B: MeOH (0.025% FA with 1 mM NH4OAc) on Waters X-Bridge C18 (2.1×50 mm, 2.5 μm) column at 60° C.
A similar experiment was performed with 4 time points taken from 0-24 h.

[3] = mouse brain, read-out: AUClast (b) (area under the brain drug concentration-time curve)
[4] = mouse plasma, read-out: AUClast (p) (area under the plasma drug concentration-time curve)

T1 sequence (P61073 whole entry): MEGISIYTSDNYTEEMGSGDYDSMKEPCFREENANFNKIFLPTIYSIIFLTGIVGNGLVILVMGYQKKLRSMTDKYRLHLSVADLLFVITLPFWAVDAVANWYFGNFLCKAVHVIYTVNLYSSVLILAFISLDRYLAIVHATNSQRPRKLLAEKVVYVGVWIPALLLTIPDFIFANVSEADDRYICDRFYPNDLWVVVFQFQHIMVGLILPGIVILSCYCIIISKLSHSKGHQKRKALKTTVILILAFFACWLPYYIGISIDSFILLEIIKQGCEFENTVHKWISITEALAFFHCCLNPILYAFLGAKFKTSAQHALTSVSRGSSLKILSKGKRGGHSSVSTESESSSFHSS
T2 sequence (P61073 whole entry): as above

Row | SMILES | IC50 (CXCR4 (U87.CXCR4 cells)) | IC50 [1] | Papp A→B at 90 min, 10 μM (in vitro) | Papp B→A at 90 min, 10 μM (in vitro) | efflux ratio at 90 min, 10 μM (in vitro) | Kp [2] | clearance [2] | half-life [2] | AUC(0-t) [2, 3] | AUC(0-t) [2, 4]
1 | CN1CCN(c2c(CN3CCCC3c3ccccn3)nc3ccccn23)CC12CC2 (stereo not shown) [Compound I-58] | 0.01 to 100 nM | 0.01 to 100 nM | 10 to 30 ×10⁻⁶ cm/s | 10 to 30 ×10⁻⁶ cm/s | 0.1 to 10 | 3.13 | 38.7 mL/min/kg | 3.43 h | 1230 ng·h/mL | 393 ng·h/mL
2 | Cc1cccnc1C1CCCN1Cc1nc2ccccc2n1C1CCN(C)CC1 (stereo not shown) [Compound I-33] | 100 to 1000 nM | 0.01 to 100 nM | 10 to 30 ×10⁻⁶ cm/s | 10 to 30 ×10⁻⁶ cm/s | 0.1 to 10 | 6.6 | 27.5 mL/min/kg | 4.93 h | 1660 ng·h/mL | 252 ng·h/mL
3 | c1ccc(OCc2c(CN3CCCC3c3ccccn3)nc3ccccn23)nc1 (stereo not shown) [Compound I-94] | ≥ 1000 nM | ≥ 1000 nM | 10 to 30 ×10⁻⁶ cm/s | > 30 ×10⁻⁶ cm/s | 0.1 to 10 | – | – | – | – | –
4 | Cc1cccnc1C1CCCN1Cc1nccn1C1CCN(C)CC1 (stereo not shown) [Compound I-36] | ≥ 1000 nM | 100 to 1000 nM | 0.1 to 10 ×10⁻⁶ cm/s | > 30 ×10⁻⁶ cm/s | 0.1 to 10 | – | – | – | – | –
5 | CN1CCN(c2cccnc2CN2CCCC2c2ccccn2)CC1 (stereo not shown) [Compound I-56] | ≥ 1000 nM | 100 to 1000 nM | 10 to 30 ×10⁻⁶ cm/s | 10 to 30 ×10⁻⁶ cm/s | 0.1 to 10 | – | – | – | – | –
6 | Cc1cccnc1C1CCCN1Cc1cn2c(CCC#N)cccc2n1 (stereo not shown) [Compound I-83] | ≥ 1000 nM | 100 to 1000 nM | 0.1 to 10 ×10⁻⁶ cm/s | > 30 ×10⁻⁶ cm/s | 0.1 to 10 | – | – | – | – | –
7 | CN1CCN(c2c(C3CCCN3Cc3ccccn3)nc3ccccn23)CC1 (stereo not shown) [Compound I-101] | 100 to 1000 nM | 0.01 to 100 nM | 0.1 to 10 ×10⁻⁶ cm/s | > 30 ×10⁻⁶ cm/s | 0.1 to 10 | – | – | – | – | –

Other lines, results leading:

Row | IC50 (CXCR4 (U87.CXCR4 cells)) | IC50 [1] | Papp A→B at 90 min, 10 μM (in vitro) | Papp B→A at 90 min, 10 μM (in vitro) | efflux ratio at 90 min, 10 μM (in vitro) | Kp [2] | clearance [2] | half-life [2] | AUC(0-t) [2, 3] | AUC(0-t) [2, 4] | SMILES
8 | 0.01 to 100 nM | 0.01 to 100 nM | 0.1 to 10 ×10⁻⁶ cm/s | 10 to 30 ×10⁻⁶ cm/s | 0.1 to 10 | 1.05 | 58.3 mL/min/kg | 3.71 h | 240 ng·h/mL | 227 ng·h/mL | CN1CCN(c2c(CN3CCCC3c3ncccc3Cl)nc3ccccn23)CC1 (stereo not shown) [Compound I-59]
9 | 0.01 to 100 nM | 0.01 to 100 nM | 10 to 30 ×10⁻⁶ cm/s | 10 to 30 ×10⁻⁶ cm/s | 0.1 to 10 | 5.51 | 41.8 mL/min/kg | 3.99 h | 833 ng·h/mL | 151 ng·h/mL | Cc1cccnc1CN1CCCC1c1nc2cccc(N3CCN(C)CC3)c2[nH]1 (stereo not shown) [Compound I-45]
10 | 100 to 1000 nM | 0.01 to 100 nM | 0.1 to 10 ×10⁻⁶ cm/s | 10 to 30 ×10⁻⁶ cm/s | 0.1 to 10 | – | – | – | – | – | Cc1c(CN2CCCC2c2ncccc2Cl)nc2cccc(N3CCN(C)CC3)n12 (stereo not shown) [Compound I-47]
11 | 0.01 to 100 nM | 0.01 to 100 nM | 0.1 to 10 ×10⁻⁶ cm/s | > 30 ×10⁻⁶ cm/s | 10 to 30 | – | – | – | – | – | Cc1cccnc1C1CCCN1Cc1nc2ccccn2c1N1CCN(C)CC1 (stereo not shown) [Compound I-40]
12 | ≥ 1000 nM | 100 to 1000 nM | 0.1 to 10 ×10⁻⁶ cm/s | 10 to 30 ×10⁻⁶ cm/s | 0.1 to 10 | – | – | – | – | – | CN1CCN(c2cccc3nc(CN4CCCC4c4ncccc4Cl)c(F)n23)CC1 (stereo not shown) [Compound I-35]
13 | 100 to 1000 nM | 0.01 to 100 nM | 0.1 to 10 ×10⁻⁶ cm/s | 10 to 30 ×10⁻⁶ cm/s | 0.1 to 10 | – | – | – | – | – | Cc1cccnc1C1CCCCN1Cc1cn2c(N3CCN(C)CC3)cccc2n1 (stereo not shown) [Compound I-1, 5-(4-methylpiperazin-1-yl)-2-((2-(3-methylpyridin-2-yl)piperidin-1-yl)methyl)imidazo[1,2-a]-pyridine]
